According to patent US20250353855A1, “HETEROCYCLIC AND HETEROARYL COMPOUNDS FOR TREATING HUNTINGTON'S DISEASE” (PTC THERAPEUTICS, INC., priority 2022, published 2025):

Each compound was assayed on Endogenous Huntingtin Protein (assay: Endogenous Huntingtin Protein Assay (ELISA-based MSD electrochemiluminescence)). Conditions: MSD plates coated with MW1 (expanded polyglutamine) or MAB2166 capture antibody; lysates; read-out: IC50.
Format: cell-based
Description: Compounds of Formula (T) were tested using the Meso Scale Discovery (MSD) Assay provided in International Application No. PCT/US2016/066042, filed on Dec. 11, 2016 and claiming priority to U.S. Provisional Application 62/265,652 filed on Dec. 10, 2015, the entire contents of which are incorporated herein by reference.
The Endogenous Huntingtin Protein assay used in Example 1 was developed using the ELISA-based MSD electrochemiluminescence assay platform.
Meso Scale Discovery (MSD) 96-well or 384-well plates were coated overnight at 4° C. with MW1 (expanded polyglutamine) or MAB2166 monoclonal antibody (for capture) at a concentration of 1 μg/mL in PBS (30 μL per well). Plates were then washed three times with 300 μL wash buffer (0.05% Tween-20 in PBS) and blocked (100 μL blocking buffer; 5% BSA in PBS) for 4-5 hours at room temperature with rotational shaking and then washed three times with wash buffer.
Samples (25 μL) were transferred to the antibody-coated MSD plate and incubated overnight at 4° C. After removal of the lysates, the plate was washed three times with wash buffer, and 25 μL of #5656S (Cell signaling; rabbit monoclonal) secondary antibody (diluted to 0.25 μg/mL in 0.05% Tween-20 in blocking buffer) was added to each well and incubated with shaking for 1 Hour at room temperature. Following incubation with the secondary antibody, the wells were rinsed with wash buffer after which 25 μL of goat anti-rabbit SULFO TAG secondary detection antibody (required aspect of the MSD system) (diluted to 0.25 μg/mL in 0.05% Tween-20 in blocking buffer) was added to each well and incubated with shaking for 1 hour at room temperature. After rinsing three times with wash buffer, 150 μL of read buffer T with surfactant (MSD) were added to each empty well, and the plate was imaged on a SI 6000 imager (MSD) according to manufacturers' instructions provided for 96- or 384-well plates.

Row | IC50 | SMILES
1 | 500 to 1000 nM | Cn1nnc2cc(-c3cc4nnn(C5CC(C)(C)NC6(CC6)C5)c4nn3)c(O)cc21 (racemic) [Cpd 7, 5-[rac-3-(5,5-dimethyl-4-azaspiro[2.5]octan-7-yl)-3H-[1,2,3]triazolo[4,5-c]pyridazin-6-yl]-1-methyl-1H-benzotriazol-6-ol]
2 | 100 to 500 nM | Cc1nc2cc(-c3cc4ccn([C@@H]5CCNC6(CCC6)[C@@H]5F)c4nn3)c(O)cc2s1 (single isomer, unassigned) [Cpd 34, 5-{7-[(8R,9R)-9-fluoro-5-azaspiro[3.5]nonan-8-yl]-7H-pyrrolo[2,3-c]pyridazin-3-yl}-2-methyl-1,3-benzothiazol-6-ol or 5-{7-[(8S,9S)-9-fluoro-5-azaspiro[3.5]nonan-8-yl]-7H-pyrrolo[2,3-c]pyridazin-3-yl}-2-methyl-1,3-benzothiazol-6-ol]
3 | < 100 nM | Cc1nc2cc(O)c(-c3cc4c(nn3)N([C@H]3C[C@@H]5CC[C@@H](N5)[C@H]3F)CC4)cc2s1 (single isomer, unassigned) [Cpd 58, 6-{7-[(1R,2R,3S,5S)-2-fluoro-8-azabicyclo[3.2.1]octan-3-yl]-6,7-dihydro-5H-pyrrolo[2,3-c]pyridazin-3-yl}-2-methyl-1,3-benzothiazol-5-ol or 6-{7-[(1S,2S,3R,5R)-2-fluoro-8-azabicyclo[3.2.1]octan-3-yl]-6,7-dihydro-5H-pyrrolo[2,3-c]pyridazin-3-yl}-2-methyl-1,3-benzothiazol-5-ol]
4 | < 100 nM | Cc1nc2cc(O)c(-c3cc4c(nn3)N([C@@H]3CC5(CCC5)NC[C@@H]3F)CC4)cc2s1 (single isomer, unassigned) [Cpd 61, 6-{7-[(7S,8R)-7-fluoro-5-azaspiro[3.5]nonan-8-yl]-6,7-dihydro-5H-pyrrolo[2,3-c]pyridazin-3-yl}-2-methyl-1,3-benzothiazol-5-ol or 6-{7-[(7R,8S)-7-fluoro-5-azaspiro[3.5]nonan-8-yl]-6,7-dihydro-5H-pyrrolo[2,3-c]pyridazin-3-yl}-2-methyl-1,3-benzothiazol-5-ol]
5 | < 100 nM | Cc1nc2cc(O)c(-c3cc4c(nn3)N([C@@H]3CCNC(C)(C)[C@@H]3F)CC4)cc2s1 (single isomer, unassigned) [Cpd 63, 6-{7-[(3R,4R)-3-fluoro-2,2-dimethylpiperidin-4-yl]-6,7-dihydro-5H-pyrrolo[2,3-c]pyridazin-3-yl}-2-methyl-1,3-benzothiazol-5-ol or 6-{7-[(3S,4S)-3-fluoro-2,2-dimethylpiperidin-4-yl]-6,7-dihydro-5H-pyrrolo[2,3-c]pyridazin-3-yl}-2-methyl-1,3-benzothiazol-5-ol]
6 | < 100 nM | Cc1nc2cc(O)c(-c3cc4c(nn3)N([C@@H]3CCNC(C)(C)[C@@H]3F)CC4)cc2o1 (single isomer, unassigned) [Cpd 64, 6-{7-[(3R,4R)-3-fluoro-2,2-dimethylpiperidin-4-yl]-6,7-dihydro-5H-pyrrolo[2,3-c]pyridazin-3-yl}-2-methyl-1,3-benzoxazol-5-ol or 6-{7-[(3S,4S)-3-fluoro-2,2-dimethylpiperidin-4-yl]-6,7-dihydro-5H-pyrrolo[2,3-c]pyridazin-3-yl}-2-methyl-1,3-benzoxazol-5-ol]
7 | < 100 nM | Cc1nc2cc(-c3cc4c(nn3)N(C3CCNC5(CCC5)[C@@H]3F)CC4)c(O)cc2s1 (single isomer, unassigned) [Cpd 74, 5-{7-[(8R,9R)-9-fluoro-5-azaspiro[3.5]nonan-8-yl]-6,7-dihydro-5H-pyrrolo[2,3-c]pyridazin-3-yl}-2-methyl-1,3-benzothiazol-6-ol or 5-{7-[(8S,9S)-9-fluoro-5-azaspiro[3.5]nonan-8-yl]-6,7-dihydro-5H-pyrrolo[2,3-c]pyridazin-3-yl}-2-methyl-1,3-benzothiazol-6-ol]
8 | < 100 nM | Cc1cc(=O)oc2cc(O)c(-c3cc4c(nn3)N([C@@H]3C[C@H]5CC[C@H](N5)[C@@H]3F)CC4)cc12 (single isomer, unassigned) [Cpd 79, 6-{7-[(1S,2S,3R,5R)-2-fluoro-8-azabicyclo[3.2.1]octan-3-yl]-6,7-dihydro-5H-pyrrolo[2,3-c]pyridazin-3-yl}-7-hydroxy-4-methyl-2H-1-benzopyran-2-one or 6-{7-[(1R,2R,3S,5S)-2-fluoro-8-azabicyclo[3.2.1]octan-3-yl]-6,7-dihydro-5H-pyrrolo[2,3-c]pyridazin-3-yl}-7-hydroxy-4-methyl-2H-1-benzopyran-2-one]
9 | < 100 nM | Cc1cnc2cc(-c3cc4c(nn3)N([C@@H]3C[C@H]5CC[C@H](N5)[C@@H]3F)CC4)c(O)cc2n1 (single isomer, unassigned) [Cpd 91, 7-{7-[(1S,2S,3R,5R)-2-fluoro-8-azabicyclo[3.2.1]octan-3-yl]-6,7-dihydro-5H-pyrrolo[2,3-c]pyridazin-3-yl}-3-methylquinoxalin-6-ol or 7-{7-[(1R,2R,3S,5S)-2-fluoro-8-azabicyclo[3.2.1]octan-3-yl]-6,7-dihydro-5H-pyrrolo[2,3-c]pyridazin-3-yl}-3-methylquinoxalin-6-ol]
10 | 1000 to 3000 nM | CC1(C)CC(n2nnc3cc(-c4cc5c(cc4O)C(=O)CC5)nnc32)CC(C)(C)N1 [Cpd 1, 6-hydroxy-5-[3-(2,2,6,6-tetramethylpiperidin-4-yl)-3H-[1,2,3]triazolo[4,5-c]pyridazin-6-yl]-2,3-dihydro-1H-inden-1-one]
11 | 1000 to 3000 nM | CC1(C)CC(n2nnc3cc(-c4cc5cccnc5cc4O)nnc32)CC(C)(C)N1 [Cpd 2, 6-[3-(2,2,6,6-tetramethylpiperidin-4-yl)-3H-[1,2,3]triazolo[4,5-c]pyridazin-6-yl]quinolin-7-ol]

Row | SMILES | IC50
12 | Cc1nc2cc(O)c(-c3cc4ncn([C@H]5C[C@@H]6CC[C@@H](N6)[C@H]5F)c4nn3)cc2s1 (single isomer, unassigned) [Cpd 9, 6-{7-[(1R,2R,3S,5S)-2-fluoro-8-azabicyclo[3.2.1]octan-3-yl]-7H-imidazo[4,5-c]pyridazin-3-yl}-2-methyl-1,3-benzothiazol-5-ol or 6-{7-[(1S,2S,3R,5R)-2-fluoro-8-azabicyclo[3.2.1]octan-3-yl]-7H-imidazo[4,5-c]pyridazin-3-yl}-2-methyl-1,3-benzothiazol-5-ol] | < 100 nM
13 | Cc1nc2cc(O)c(-c3cc4ccn([C@H]5C[C@@H]6CC[C@@H](N6)[C@H]5F)c4nn3)cc2s1 (single isomer, unassigned) [Cpd 10, 6-{7-[(1R,2R,3S,5S)-2-fluoro-8-azabicyclo[3.2.1]octan-3-yl]-7H-pyrrolo[2,3-c]pyridazin-3-yl}-2-methyl-1,3-benzothiazol-5-ol or 6-{7-[(1S,2S,3R,5R)-2-fluoro-8-azabicyclo[3.2.1]octan-3-yl]-7H-pyrrolo[2,3-c]pyridazin-3-yl}-2-methyl-1,3-benzothiazol-5-ol] | < 100 nM
14 | Cc1nc2cc(O)c(-c3cc4ccn([C@@H]5C[C@H]6CC[C@H](N6)[C@@H]5F)c4nn3)cc2s1 (single isomer, unassigned) [Cpd 22, 6-{7-[(1S,2S,3R,5R)-2-fluoro-8-azabicyclo[3.2.1]octan-3-yl]-7H-pyrrolo[2,3-c]pyridazin-3-yl}-2-methyl-1,3-benzothiazol-5-ol or 6-{7-[(1R,2R,3S,5S)-2-fluoro-8-azabicyclo[3.2.1]octan-3-yl]-7H-pyrrolo[2,3-c]pyridazin-3-yl}-2-methyl-1,3-benzothiazol-5-ol] | < 100 nM
